Measurements taken from patent publication US20060165743A1, “Method and device to control and condition the behavior of the varroa destructor mite in a beehive, or in other environment where bees reproduce” (Universita' Degli Studi Di Udine, priority 2002, published 2006).

Experiments:
Varroa destructor mite [1] = experiment: Activity test in the beehive (cells with worker bee larvae near to opercolature); format: in vivo; settings: 100 ng in 1 μl solvent per cell, 18 hours after treatment
Description: (±)-2-hydroxyhexanoic acid was also tested in the beehive, by applying, in the cells with worker bee larvae near to opercolature, a solution of 100 ng of (±)-2-hydroxyhexanoic acid dissolved in 1 μl of a suitable solvent. The infestation of such cells was compared with that of the control cells treated with the solvent alone: the cells used were examined 18 hours after treatment and the Varroa destructor mites present in the treated cells and in the control cells were counted.

Varroa destructor mite [2] = experiment: Activity test in artificial observation plates (treated wells vs solvent control wells, each with a bee larva); format: in vivo; settings: for AVERAGE ACTIVITY TREATED: 6 observations in 30 min, 34° C., 75% RH, dark
Description: The activity of (±)-2-hydroxyhexanoic acid and of (±)-3-hydroxyhexanoic acid, dissolved in water, was tested in a plate 10 (FIG. 1). Each plate 10 consists of a parallelepiped of sodium-calcium glass with a 70×70 mm square base, and a height of 12 mm, in which four cylindrical wells 12a, 12b, are made, each with a diameter of 7 mm and a depth of 10 mm, similar in size to bee cells. The wells 12a, 12b are equidistant from the center. At the center of the plate 10 a Varroa destructor mite was placed, indicated by the number 11. To delimit the space in which the mite 11 could move, the plates 10 were closed with a cover element 15 consisting of a glass disk joined to a stainless steel spacer ring 17. Two opposite wells 12a of each plate 10 were treated with (±)-2-hydroxyhexanoic acid or with (±)-3-hydroxyhexanoic acid, dissolved in water; the other two wells 12b, on the contrary, were used as controls and were treated only with the solvent. In each individual well 12a, 12b of the plate 10 a bee larva 20 was then placed. The biological activity test on (±)-2-hydroxyhexanoic acid provides a first test during which 1 ng of (±)-2-hydroxyhexanoic acid is tested, a second test during which 10 ng of (±)-2-hydroxyhexanoic acid are tested and a third test during which 100 ng are tested and a fourth test during which 1000 ng are tested. The biological activity test on (±)-3-hydroxyhexanoic acid provides a first test during which 10 ng of (±)-3-hydroxyhexanoic acid are tested, a second test during which 100 ng of (±)-3-hydroxyhexanoic acid are tested, and a third test during which 1000 ng are tested. At the beginning of each test the Varroa destructor mite 11, in this case a female adult, is located at the center of each plate 10 with a thin brush; each plate 10 is then closed and transferred to a thermostatic chamber. Subsequently, the position of the mite 11 was monitored every 5 minutes for a total of 30 minutes, to a total of 6 observations. 20 plates were used for every test, with 4 repetitions, to a total of 80 plates. During the tests the temperature and relative humidity were kept respectively around 34° C. and 75%; the inside of the thermostatic chamber was kept dark. The action of the substances tested on the Varroa destructor mite was evaluated by calculating an average value for the treated wells 12a and the control wells 12b, equal to the average number of times in which the Varroa destructor mite was observed inside one or the other in the 6 observations made in the course of the 30 minutes of each test. The average values thus obtained are representative, with a certain approximation, of the time spent by the mite in the two types of well 12a, 12b. The attractiveness of a substance thus determines higher average values for the treated wells 12a with respect to those of the control wells 12b.

Row | Structure (SMILES) | Number of Varroa destructor mites per cell in treated cells vs non-treated cells, in words (Varroa destructor mite [1]) | N. OF VARROA DESTRUCTOR MITE PER CELL TREATED, Average (Varroa destructor mite [1]; average of 5 replications) | AVERAGE ACTIVITY TREATED (Varroa destructor mite [2]; 1 ng in treated wells) | AVERAGE ACTIVITY TREATED (Varroa destructor mite [2]; 10 ng in treated wells) | AVERAGE ACTIVITY TREATED (Varroa destructor mite [2]; 100 ng in treated wells) | AVERAGE ACTIVITY TREATED (Varroa destructor mite [2]; 1000 ng in treated wells) | Activity on / attractiveness to the Varroa destructor mite (infestation of treated wells vs control wells), in words (Varroa destructor mite [2]; dose 10 ng) | Activity on / attractiveness to the Varroa destructor mite (infestation of treated wells vs control wells), in words (Varroa destructor mite [2]; dose 100 ng)
1 | CCCCC(O)C(=O)O (racemic) [(±)-2-hydroxyhexanoic acid] | significantly greater | 0.60 | 22.3 | 31.8 | 34.7 | 23.0 | active on and attractive to the Varroa destructor mite | active on and attractive to the Varroa destructor mite
2 | CCCCCCC(O)C(=O)O (racemic) [(±)-2-hydroxyoctanoic acid, reference compound] | – | – | – | – | 29.5 | – | – | not found to be active
3 | CCCC(O)CC(=O)O (racemic) [(±)-3-hydroxyhexanoic acid] | – | – | – | 24.5 | 36.8 | 23.3 | – | active on and attractive to the Varroa destructor mite
